Data: ChEMBL document CHEMBL1132612, “Melatonergic properties of the (+)- and (-)-enantiomers of N-(4-methoxy-2,3-dihydro-1H-phenalen-2-yl)amide derivatives” (J Med Chem, 1999)

Columns and labels:
Melatonin receptor = Melatonin receptor (Gallus gallus, UniProt P49288+P51050+P49285); experiment: Inhibition of 2-[125I]- iodomelatonin from chicken brain melatonin receptors
[1] = molecular target: Melatonin receptor (Xenopus laevis); experiment: Functional activity against melatonin receptor in lightening Xenopus laevis tadpole skin
[2] = test system: Melatonin receptor (Xenopus laevis); experiment: Percent maximum effect relative to melatonin (100%)
[3] = molecular target: Melatonin receptor (Xenopus laevis); experiment: The functional activity on melatonin receptor was evaluated by its potency to lighten the skin of Xenopus laevis tadpoles

Row | SMILES | Ki (Melatonin receptor) [nM] | EC50 [1] [nM] | Activity [2] [%] | EC50 [3] [nM]
1 | CCC(=O)NC1Cc2cccc3ccc(OC)c(c23)C1 (racemic) | 8.6 | > 1000 | 40 | –
2 | O=C(NCCc1cccc2ccccc12)C1CCC1 | 787 | > 1000 | – | –
3 | COc1ccc2cccc3c2c1CC(NC(C)=O)C3 (racemic) | 36.5 | > 1000 | 0 | –
4 | COc1ccc2ccc(OC)c(CCNC(C)=O)c2c1 | – | 0.037 | 100 | –
5 | CCCC(=O)NC1Cc2cccc3ccc(OC)c(c23)C1 (racemic) | 1.7 | – | 40 | > 1000
6 | COc1ccc2cccc3c2c1C[C@H](NC(C)=O)C3 | 28.7 | > 1000 | 0 | –
7 | CCCC(=O)N[C@@H]1Cc2cccc3ccc(OC)c(c23)C1 | 10 | – | – | –
8 | CCCC(=O)N[C@H]1Cc2cccc3ccc(OC)c(c23)C1 | 3.2 | – | – | –
9 | CCC(=O)N[C@@H]1Cc2cccc3ccc(OC)c(c23)C1 | 7.6 | – | – | –
10 | COc1ccc2cccc3c2c1C[C@@H](NC(C)=O)C3 | 38.3 | > 1000 | 0 | –
11 | CCC(=O)N[C@H]1Cc2cccc3ccc(OC)c(c23)C1 | 9 | – | – | –
